Assays:
L1210 DDP cells = test: mitochondrial membrane potential (MitoTracker), L1210 DDP; assay type: cell-based; conditions: 24 hours of incubation, FIG. 11
Method: (§1) Flow Cytometry. Cells were harvested, counted, and resuspended at 10^6 cells/100 μl of PBS containing 2.5% fetal calf serum in preparation for flow cytometric analysis. Cells were stained for intracellular H202 using 6-carboxy-2′,7′-dichlorodihydrofluorescein diacetate (DCF-DA, Molecular Probes, Eugene, Oreg.). Briefly, cells were incubated at 37° with 1 mM DCF-DA for 20 minutes, washed twice in PBS containing 2.5% fetal calf serum and analyzed flow cytometrically. Mitochondrial membrane potential was assessed using Mitotracker Red (CM-H2XROS, Molecular Probes, Eugene, Oreg.). […] The cells were incubated at 37° for 20 minutes, washed twice in PBS containing 2.5% fetal calf serum and analyzed flow cytometrically. Data were acquired on a Coulter Elite Epics or Excel flow cytometer (Coulter, Hialeah, Fla.) and analyzed with CellQuest software, (Becton Dickinson, San Jose, Calif.). […] Each sample population was classified for cell size (forward scatter) and complexity (side scatter), gated on a population of interest and evaluated using 5,000 cells. […]
(§2) We measured the effects of etomoxir on metabolism by measuring mitochondrial membrane potential with a fluorescent dye (Mitotracker Red, Molecular Probes, Eugene, Oreg.) which fluoresces as a function of mitochondrial potential. […]

L1210 cells = test: DCFDA staining (reactive intermediates), L1210; assay type: cell-based; conditions: L1210, 24 hours of incubation, FIG. 12A
Method: as §1, §2

B16F1 melanoma cells = test: intracellular reactive intermediates (DCFDA) in B16F1 melanoma cells; assay type: cell-based, mouse; conditions: B16F1, 48 hours, FIG. 19
Method: Metabolic Activity Assay. Cells were prepared as previously described. The specific metabolic dye was added and mixed into the cell suspension. This plate was then placed into the 37° incubator for a 20-minute incubation. After incubation, the cells were centrifuged at 300×g for 5 minutes, and the supernatant was removed. The cells were then washed once with PBS/2.5% FBS and transferred into flow cytometric tubes containing 500 μL of PBS/2.5% FBS for analysis.
5-(and -6)-Chloromethyl-2′,7′-dichlorodihydrofluorescein diacetate (CMH2DCFDA) (Molecular Probes). One vial of DCFda provides 10 tests and contains 50 μg. This is unstable and can't be stored. Therefore, each vial was opened and 43 μL of DMSO was added. […]
B16F1 melanoma cells were cultured at a concentration of 0.5 to 1 million cells per ml. Cells were harvested and analyzed by flow cytometry. […] Five thousand cells were assessed for forward scatter (FS), as a function of cell size, versus side scatter (SS), as a function of cellular granularity. […]
B16F1 melanoma cells of Example 12 were untreated or treated with etomoxir at the indicated concentrations for 48 hours. Cells were harvested, stained with DCFDA as described in Materials and Methods, and analyzed by flow cytometry. The value of DCFDA was then calculated as described in Materials and Methods.

[1] = tested on: HL60 MDR human leukemia cells; test: percent death of HL60 MDR cells (flow cytometry, live versus dead); assay type: cell-based
Method: Dot plots as a function of live versus dead cells. The cells were cultured at a concentration of 0.5 to 1 million cells per ml. Cells were untreated or treated with or 2-deoxy-D-glucose and/or etomoxir and/or antibodies to UCP2 and used at dilutions or concentrations as indicated on the figure. The cells were cultured in the presence or absence of etomoxir at 100 micrograms/ml for 24 hours followed by treatment with antibody as indicated for an additional 24 or 48 hours (i.e. totals of 48 hours or 72 hours respectively). Cells were harvested and analyzed by flow cytometry. Each dot on the dot plot represents one cell. Five thousand cells were assessed for forward scatter (FS), as a function of cell size, versus side scatter (SS), as a function of cellular granularity. The upper elipse represents live cells by these criterion and the lower elipse in each dot plot represents the dead cells.
Statistical Analysis, Percents, and Geometric Mean Values Percents. Gating is a tool provided by Cell Quest software and allows for the analysis of a certain population of cells. Gating around both the live and dead cell populations gave a percent of the cell numbers that was in each population. After the gates were drawn, a percent value of dead cells was calculated by taking the number of dead cells divided by the number of total cells and multiplying by one hundred.
HL60 MDR human leukemia cells were cultured as described above under “Materials and Methods”. Cells were untreated or treated with etomoxir, with 2-deoxy-D-glucose, or with a combination of etomoxir and 2-deoxy-D-glucose, at concentrations indicated in FIG. 27 for 24 hours. Cells were harvested and analyzed by flow cytometry.
Referring to FIGS. 31 and 32, HL60 MDR cells, cultured as described in Example 21, were untreated or treated with etomoxir, with 2-deoxy-D-glucose, or with a combination of etomoxir and 2-deoxy-D-glucose, at concentrations indicated in FIG. 31 for 48 hours. Cells were harvested and analyzed by flow cytometry.
Referring to FIGS. 35 and 36, HL60 MDR cells, cultured as described in Example 21, were treated with anti-UCP2 antibody and otherwise untreated or treated simultaneously with etomoxir, 2-deoxy-D-glucose, or both, at concentrations indicated in FIG. 35 for 48 hours. Cells were harvested and analyzed by flow cytometry.

[2] = tested on: RD cells (rhabdomyosarcoma cells-not drug resistant); test: percent death of RD cells (flow cytometry, live versus dead); assay type: cell-based
Method: The cells were cultured at a concentration of 0.5 to 1 million cells per ml. Cells were untreated or treated with or 2-deoxy-D-glucose and/or etomoxir and/or antibodies to UCP2 and used at dilutions or concentrations as indicated on the figure. The cells were cultured in the presence or absence of etomoxir at 100 micrograms/ml for 24 hours followed by treatment with antibody as indicated for an additional 24 or 48 hours (i.e. totals of 48 hours or 72 hours respectively). Cells were harvested and analyzed by flow cytometry. Each dot on the dot plot represents one cell. Five thousand cells were assessed for forward scatter (FS), as a function of cell size, versus side scatter (SS), as a function of cellular granularity. The upper elipse represents live cells by these criterion and the lower elipse in each dot plot represents the dead cells.
Gating is a tool provided by Cell Quest software and allows for the analysis of a certain population of cells. Gating around both the live and dead cell populations gave a percent of the cell numbers that was in each population. After the gates were drawn, a percent value of dead cells was calculated by taking the number of dead cells divided by the number of total cells and multiplying by one hundred.
Referring to FIGS. 29 and 30, RD cells (rhabdomyosarcoma cells-not drug resistant), cultured as described above under “Materials and Methods” were untreated or treated with etomoxir, with 2-deoxy-D-glucose, or with a combination of etomoxir and 2-deoxy-D-glucose, at concentrations indicated in FIG. 29 for 24 hours. Cells were harvested and analyzed by flow cytometry.
Referring to FIGS. 33 and 34, RD cells, cultured as described in Example 22, were untreated or treated with etomoxir, with 2-deoxy-D-glucose, or with a combination of etomoxir and 2-deoxy-D-glucose, at concentrations indicated in FIG. 33 for 48 hours. Cells were harvested and analyzed by flow cytometry.
Referring to FIGS. 37 and 38, RD cells, cultured as described in Example 22, were treated with anti-UCP2 antibody and otherwise untreated or treated simultaneously with etomoxir, 2-deoxy-D-glucose, or both, at concentrations indicated in FIG. 37 for 48 hours. Cells were harvested and analyzed by flow cytometry.

In the case of `CCOC(=O)C1(CCCCCCOc2ccc(Cl)cc2)CO1` (stereo not shown) [etomoxir, 2-(6-(4-chlorophenoxy)-hexyl)-oxirane-2-carboxylic acid ethyl ester], the “mitochondrial membrane potential (MitoTracker)” value (L1210 DDP cells) is reported as “increase the mitochondrial membrane potential”, the “free radicals (reactive intermediates), DCFDA staining” value (L1210 cells) is reported as “increase in free radicals” and the “reactive oxygen species as measured by DCFDA” value (B16F1 melanoma cells) is reported as “dose dependent increase”. For the same compound, the “percent of cell deaths” value ([1]; HL60 MDR cells after 24 hours) was 11%, the “percent of cell deaths” value ([1]; HL60 MDR cells after 48 hours) was 14% and the “percent of cell deaths” value ([2]; RD cells after 24 hours) was 57%. For the same compound, the “percent of cell deaths” value ([2]; RD cells after 48 hours) was 64%.
